Source: patent USRE48461E1, “Modulation of androgen receptor expression” (Ionis Pharmaceuticals, Inc., priority 2012, dated 2021)

Assays:
MDA-MB-453 tumor = assay: Tumor volume in MDA-MB-453 breast cancer orthotopic model; type: in vivo, NSG mice; conditions: Study 2, MDA-MB-453 model, NSG mice, 50 mg/kg s.c. 5 days per week for 2 weeks
PSA mRNA = assay: PSA expression in C4-2B cells (Example 30); type: cell-based, human; conditions: 48 hrs
Description: Cells were plated at 1,000 cells per well. […] ISIS 549148 was included as a negative control. […] After an incubation period of 48 hrs, RNA levels of AR, PSA and TMPRSS2 were measured.
Cells were plated at 2,000 cells per well and cultured in CSS media with 1 nM DHT. […] ISIS 549148 was included as a negative control. […] After an incubation period of 48 hrs, RNA levels of AR, PSA and TMPRSS2 were measured. In the absence of DHT, AR expression in C4-2 cells was 188%, PSA expression was 43% and TMPRSS2 expression was 27% compared to the untreated control.

full length AR mRNA = assay: Full-length AR RNA in VCaP cells (complete, CSS+DHT medium); type: cell-based, human; conditions: RNAiMax, 48 hrs
Description: Cells were plated at 10,000 cells per well. […] After an incubation period of 48 hrs, RNA levels of full length AR, the V7 variant, PSA and TMPRSS2 were measured.
After an incubation period of 48 hrs, RNA levels of full length AR, the V7 variant, PSA and TMPRSS2 were measured. The data is presented in Tables 108 expressed as percent expression of gene levels compared to the untreated control.
Cells were plated at 15,000 cells per well and cultured in CSS media for 16 hours. […] After 4 hrs, 1 nM DHT was added. […] After an incubation period of 48 hrs, RNA levels of AR, PSA and TMPRSS2 were measured.

22RV1 cells [1] = assay: 22RV1 cell proliferation with/without DHT (MTT); type: cell-based, human; conditions: 5 days; for Percent inhibition of 22RV1 cell proliferation: RNAiMAX
Description: 22RV1cells were plated at 1,500 cells per well. […] Separate sets of cells, also treated with each of the antisense oligonucleotides, were treated with DHT added on day 1 at a final concentration of 1 nM. After a treatment period of 5 days, the proliferative ability of the cancer cells was measured using the standard MTT assay. Results are presented in Table 69 as percent inhibition of proliferation, relative to non-treated cells.

C4-2 cells = assay: C4-2 cell proliferation (complete or CSS+DHT medium); type: cell-based, human; conditions: 5 days; for Proliferation (% untreated control): C4-2 cells
Description: After a treatment period of 5 days in complete medium or CSS+1 nM DHT medium, the proliferative capacity of the cancer cells was measured with using CellTiter 96® AQueous One Solution or CellTiter-Glo® Cell Proliferation kit (Promega), following the manufacturer's instructions. […] The proliferative capacity of cells cultured in CSS medium without DHT is 17% of untreated control levels.

22RV1 cells [2] = assay: 22RV1 cell proliferation (Example 32); type: cell-based, human; conditions: 5 days; for Proliferation (% untreated control): 22RV1 cells, complete medium
Description: After a treatment period of 5 days in complete medium, the proliferative capacity of the cancer cells was measured with using CellTiter 96® AQueous One or CellTiter-Glo® Solution Cell Proliferation kit (Promega), following the manufacturer's instructions. […] Treatment with ISIS oligonucleotides in CSS+DHT medium reduced the proliferative capacity to a greater extent than treatment with MVD-3100. The proliferative capacity of cells cultured in CSS medium without DHT is 12% of untreated control levels.

TMPRSS2 mRNA = TMPRSS2 mRNA levels in LMR20 cells; type: cell-based, human; conditions: with or without DHT/R1881
Description: LMR20 cells were plated at 1,500 cells per well in phenol red-free medium with CSS.

“TGATTTAATGGTTGCA [ISIS 569236] (cEt/MOE gapmer chemistry, further chemistry not given here) [targets intron 1]” showed a Tumor volumes (MDA-MB-453 tumor; Day 0) of 134, a Tumor volumes (MDA-MB-453 tumor; Day 8) of 283 and a Tumor volumes (MDA-MB-453 tumor; Day 13) of 260. The Tumor volumes (MDA-MB-453 tumor; Day 20) was 230, the Tumor volumes (MDA-MB-453 tumor; Day 23) was 264 and the Tumor volumes (MDA-MB-453 tumor; Day 27) was 329. For the same sequence, the Tumor volumes (MDA-MB-453 tumor; Day 29) was 323, the “Percent inhibition of PSA expression” value (PSA mRNA; CSS + DHT medium, 0.04 μM) was 0% and the “Percent inhibition of PSA expression” value (PSA mRNA; CSS + DHT medium, 0.2 μM) was 5%. For the same sequence, the “Percent inhibition of PSA expression” value (PSA mRNA; CSS + DHT medium, 1 μM) was 33%, the “Percent inhibition of PSA expression” value (PSA mRNA; CSS + DHT medium, 5.0 μM) was 46% and the “Percent inhibition of PSA expression” value (PSA mRNA; complete medium, 0.04 μM) was 30%. For the same sequence, the “Percent inhibition of PSA expression” value (PSA mRNA; complete medium, 0.2 μM) was 72%, the “Percent inhibition of PSA expression” value (PSA mRNA; complete medium, 1 μM) was 81% and the “Percent inhibition of PSA expression” value (PSA mRNA; complete medium, 5.0 μM) was 89%. The “Percent inhibition of full-length AR” value (full length AR mRNA; CSS medium, 1.34 nM) was 23%, the “Percent inhibition of full-length AR” value (full length AR mRNA; CSS medium, 4.0 nM) was 21% and the “Percent inhibition of full-length AR” value (full length AR mRNA; CSS medium, 13.4 nM) was 38%. The “Percent inhibition of full-length AR” value (full length AR mRNA; CSS medium, 40 nM) was 35%, the “Percent inhibition of full-length AR” value (full length AR mRNA; complete medium, 1.34 nM) was 0% and the “Percent inhibition of full-length AR” value (full length AR mRNA; complete medium, 4.0 nM) was 41%. For the same sequence, the “Percent inhibition of full-length AR” value (full length AR mRNA; complete medium, 13.4 nM) was 49%, the “Percent inhibition of full-length AR” value (full length AR mRNA; complete medium, 40 nM) was 74% and the “Percent inhibition of 22RV1 cell proliferation” value (22RV1 cells [1]; +DHT (1 nM), ASO 1.34 nM) was 0%. For the same sequence, the “Percent inhibition of 22RV1 cell proliferation” value (22RV1 cells [1]; +DHT (1 nM), ASO 4.0 nM) was 6%, the “Percent inhibition of 22RV1 cell proliferation” value (22RV1 cells [1]; +DHT (1 nM), ASO 13.4 nM) was 32% and the “Percent inhibition of 22RV1 cell proliferation” value (22RV1 cells [1]; +DHT (1 nM), ASO 40.0 nM) was 56%. The 22RV1 cell proliferation (22RV1 cells [1]; with or without 1 nM DHT) was “significantly inhibited prostate cancer cell proliferation even in the presence of AR activator, DHT, compared to the control”, the “Percent inhibition of 22RV1 cell proliferation” value (22RV1 cells [1]; −DHT, ASO 1.34 nM) was 0% and the “Percent inhibition of 22RV1 cell proliferation” value (22RV1 cells [1]; −DHT, ASO 4.0 nM) was 18%. The “Percent inhibition of 22RV1 cell proliferation” value (22RV1 cells [1]; −DHT, ASO 13.4 nM) was 47%, the “Percent inhibition of 22RV1 cell proliferation” value (22RV1 cells [1]; −DHT, ASO 40.0 nM) was 64% and the “Proliferation (% untreated control)” value (C4-2 cells; CSS + DHT medium, 0.04 μM) was 99 % untreated control. For the same sequence, the “Proliferation (% untreated control)” value (C4-2 cells; CSS + DHT medium, 0.2 μM) was 99 % untreated control, the “Proliferation (% untreated control)” value (C4-2 cells; CSS + DHT medium, 1 μM) was 88 % untreated control and the “Proliferation (% untreated control)” value (C4-2 cells; CSS + DHT medium, 5.0 μM) was 51 % untreated control. For the same sequence, the “Proliferation (% untreated control)” value (C4-2 cells; complete medium, 0.04 μM) was 103 % untreated control, the “Proliferation (% untreated control)” value (C4-2 cells; complete medium, 0.2 μM) was 81 % untreated control and the “Proliferation (% untreated control)” value (C4-2 cells; complete medium, 1 μM) was 57 % untreated control. For the same sequence, the “Proliferation (% untreated control)” value (C4-2 cells; complete medium, 5.0 μM) was 58 % untreated control, the “proliferation of C4-2 cells” value (C4-2 cells; complete medium or CSS+1 nM DHT) was “reduced proliferation of the cells in a dose dependent manner compared to the control” and the “Proliferation (% untreated control)” value (22RV1 cells [2]; 1.34 nM) was 92 % untreated control. The “Proliferation (% untreated control)” value (22RV1 cells [2]; 4.0 nM) was 53 % untreated control, the “Proliferation (% untreated control)” value (22RV1 cells [2]; 13.4 nM) was 20 % untreated control and the “Proliferation (% untreated control)” value (22RV1 cells [2]; 40 nM) was 7 % untreated control. The “proliferation of 22RV1 cells” value (22RV1 cells [2]) was “reduced proliferation of the cells in a dose dependent compared to the control” and the “TMPRSS2 mRNA levels in LMR20 cells” value (TMPRSS2 mRNA) was “reduced PSA levels and TMPRSS2 more extensively than the LNA gapmer ISIS 554221 or MDV3100”.
